According to patent US9446039B2, “Aminoheteroaryl compounds as MTH1 inhibitors” (CEMM—FORSCHUNGSZENTRUM FÜR MOLEKULARE MEDIZIN GMBH, priority 2012, dated 2016):

What was measured:
Format in all cases: binding
[1] = molecular target: SW480 colon carcinoma cells lysate proteins (Homo sapiens, UniProt Q13283); details: PreyGene G3BP1; SW480 cells
[2] = molecular target: T1, SW480 colon carcinoma cells lysate proteins (Homo sapiens, UniProt Q92973); details: PreyGene TNPO1; SW480 cells
T1 sequence (Q92973 1-898): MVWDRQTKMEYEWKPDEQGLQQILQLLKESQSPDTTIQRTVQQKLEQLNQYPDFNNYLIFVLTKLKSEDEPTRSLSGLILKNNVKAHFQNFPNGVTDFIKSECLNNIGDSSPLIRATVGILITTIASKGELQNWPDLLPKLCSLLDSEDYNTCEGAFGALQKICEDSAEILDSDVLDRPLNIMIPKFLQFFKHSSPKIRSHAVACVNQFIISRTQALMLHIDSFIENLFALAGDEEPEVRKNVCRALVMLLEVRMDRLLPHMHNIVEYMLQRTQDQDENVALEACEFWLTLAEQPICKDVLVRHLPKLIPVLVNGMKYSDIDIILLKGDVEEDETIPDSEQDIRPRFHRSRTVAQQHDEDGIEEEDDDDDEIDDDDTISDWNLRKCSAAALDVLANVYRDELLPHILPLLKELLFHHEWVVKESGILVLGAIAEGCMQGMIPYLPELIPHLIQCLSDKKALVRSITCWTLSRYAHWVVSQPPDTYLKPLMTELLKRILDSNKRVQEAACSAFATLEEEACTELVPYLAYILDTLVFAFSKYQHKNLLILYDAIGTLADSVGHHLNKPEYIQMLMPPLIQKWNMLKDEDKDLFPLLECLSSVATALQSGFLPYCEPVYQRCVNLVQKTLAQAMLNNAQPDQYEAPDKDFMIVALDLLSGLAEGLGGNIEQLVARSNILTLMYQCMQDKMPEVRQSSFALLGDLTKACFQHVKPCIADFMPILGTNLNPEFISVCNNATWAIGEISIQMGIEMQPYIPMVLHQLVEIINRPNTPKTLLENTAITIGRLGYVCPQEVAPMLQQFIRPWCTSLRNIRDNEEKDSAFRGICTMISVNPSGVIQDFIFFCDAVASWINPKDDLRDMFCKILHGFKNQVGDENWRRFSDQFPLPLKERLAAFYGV

[3] = molecular target: T2, SW480 colon carcinoma cells lysate proteins (Homo sapiens, UniProt B2RPK0); details: PreyGene HMGB1P1
T2 sequence (B2RPK0 1-211): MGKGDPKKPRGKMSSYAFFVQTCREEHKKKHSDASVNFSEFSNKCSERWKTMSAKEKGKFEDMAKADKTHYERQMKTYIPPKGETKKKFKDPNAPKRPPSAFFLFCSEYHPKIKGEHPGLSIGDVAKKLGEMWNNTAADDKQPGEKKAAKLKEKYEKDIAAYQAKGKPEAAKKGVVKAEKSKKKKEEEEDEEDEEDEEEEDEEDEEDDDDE

[4] = molecular target: T3, SW480 colon carcinoma cells lysate proteins (Homo sapiens, UniProt P29373); details: PreyGene CRABP2
T3 sequence (P29373 1-138): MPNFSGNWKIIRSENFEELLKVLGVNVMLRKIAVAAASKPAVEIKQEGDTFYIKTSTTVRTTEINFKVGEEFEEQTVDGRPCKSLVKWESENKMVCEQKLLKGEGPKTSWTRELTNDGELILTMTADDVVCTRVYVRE

[5] = molecular target: SW480 colon carcinoma cells lysate proteins (Homo sapiens, UniProt P68366); details: PreyGene TUBA4A; SW480 cells
Chain of SW480 colon carcinoma cells lysate proteins (Homo sapiens, UniProt P68366) (P68366 whole entry): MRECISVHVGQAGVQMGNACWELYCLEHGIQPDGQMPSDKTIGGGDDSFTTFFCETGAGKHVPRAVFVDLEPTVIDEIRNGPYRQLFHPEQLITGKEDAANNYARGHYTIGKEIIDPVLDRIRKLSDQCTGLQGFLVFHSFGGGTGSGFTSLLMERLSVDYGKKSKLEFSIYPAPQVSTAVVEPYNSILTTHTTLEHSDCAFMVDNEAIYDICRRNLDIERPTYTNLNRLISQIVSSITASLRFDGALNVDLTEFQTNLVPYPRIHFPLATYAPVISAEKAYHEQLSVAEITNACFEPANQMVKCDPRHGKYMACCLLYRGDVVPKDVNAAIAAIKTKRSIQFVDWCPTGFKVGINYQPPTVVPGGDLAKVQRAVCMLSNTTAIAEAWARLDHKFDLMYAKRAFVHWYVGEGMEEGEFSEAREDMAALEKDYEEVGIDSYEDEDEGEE

[6] = molecular target: T4, SW480 colon carcinoma cells lysate proteins (Homo sapiens, UniProt Q9H910); details: PreyGene HN1L
T4 sequence (Q9H910 1-190): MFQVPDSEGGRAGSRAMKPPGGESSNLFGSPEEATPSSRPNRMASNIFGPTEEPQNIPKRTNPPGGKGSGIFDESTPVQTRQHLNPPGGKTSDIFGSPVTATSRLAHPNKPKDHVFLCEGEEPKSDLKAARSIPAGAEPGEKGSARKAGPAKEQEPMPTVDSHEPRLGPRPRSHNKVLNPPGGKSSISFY

[7] = molecular target: T5, SW480 colon carcinoma cells lysate proteins (Homo sapiens, UniProt Q14498); details: PreyGene RBM39
T5 sequence (Q14498 1-530): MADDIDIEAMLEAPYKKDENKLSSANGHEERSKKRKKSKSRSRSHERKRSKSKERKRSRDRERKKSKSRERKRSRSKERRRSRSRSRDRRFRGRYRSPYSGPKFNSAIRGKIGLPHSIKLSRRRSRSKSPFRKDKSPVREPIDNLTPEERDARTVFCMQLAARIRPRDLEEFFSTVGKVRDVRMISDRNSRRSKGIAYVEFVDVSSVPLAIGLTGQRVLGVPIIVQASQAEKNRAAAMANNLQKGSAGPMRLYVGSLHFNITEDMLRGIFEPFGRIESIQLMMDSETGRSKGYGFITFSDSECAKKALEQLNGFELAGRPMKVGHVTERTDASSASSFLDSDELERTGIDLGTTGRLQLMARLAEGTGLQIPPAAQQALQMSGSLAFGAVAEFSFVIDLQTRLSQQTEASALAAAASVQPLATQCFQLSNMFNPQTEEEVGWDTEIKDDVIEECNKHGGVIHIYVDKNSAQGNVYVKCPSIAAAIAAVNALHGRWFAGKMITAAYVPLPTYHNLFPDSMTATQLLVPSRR

Chain of SW480 colon carcinoma cells lysate proteins (Homo sapiens, UniProt Q13283) (Q13283 whole entry): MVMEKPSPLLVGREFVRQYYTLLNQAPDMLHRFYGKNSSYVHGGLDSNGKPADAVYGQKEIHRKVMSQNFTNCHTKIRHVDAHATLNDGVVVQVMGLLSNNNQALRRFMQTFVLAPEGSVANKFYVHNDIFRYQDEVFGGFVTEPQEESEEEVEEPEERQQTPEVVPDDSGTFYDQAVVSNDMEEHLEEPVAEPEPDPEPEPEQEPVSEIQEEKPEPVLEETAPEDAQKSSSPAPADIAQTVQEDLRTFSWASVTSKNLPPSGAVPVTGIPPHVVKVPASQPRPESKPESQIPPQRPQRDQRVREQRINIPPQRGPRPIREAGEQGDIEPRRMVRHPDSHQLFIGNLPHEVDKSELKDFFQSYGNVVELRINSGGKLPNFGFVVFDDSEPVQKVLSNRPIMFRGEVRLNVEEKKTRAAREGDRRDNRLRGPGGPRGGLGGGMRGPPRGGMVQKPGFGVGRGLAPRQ

C[C@H](Oc1cc(-c2cnn(C3CCNCC3)c2)cnc1N)c1c(Cl)ccc(F)c1Cl [(5)-crizotinib]
AvgP [1]: 0 | SC.Exp. 1-1 [1]: 2 | SC.Exp. 1-2 [1]: 2 | SC.Exp. 2-1 [1]: 3 | SC.Exp. 2-2 [1]: 2 | SC.Exp. Sum [1]: 9 | AvgP [2]: 0 | SC.Exp. 1-1 [2]: 9 | SC.Exp. 1-2 [2]: 7 | SC.Exp. 2-1 [2]: 6 | SC.Exp. 2-2 [2]: 6 | SC.Exp. Sum [2]: 28 | AvgP [3]: 0.3829 | SC.Exp. 1-1 [3]: 2 | SC.Exp. 1-2 [3]: 2 | SC.Exp. 2-1 [3]: 0 | SC.Exp. 2-2 [3]: 0 | Sum (SC.Exp.) [3]: 4 | AvgP [4]: 0.2533 | SC.Exp. 1-1 [4]: 4 | SC.Exp. 1-2 [4]: 1 | SC.Exp. 2-1 [4]: 0 | SC.Exp. 2-2 [4]: 0 | Sum (SC.Exp.) [4]: 5 | AvgP [5]: 0 | SC.Exp. 1-1 [5]: 22 | SC.Exp. 1-2 [5]: 20 | SC.Exp. 2-1 [5]: 14 | SC.Exp. 2-2 [5]: 12 | SC.Exp. Sum [5]: 68 | AvgP [6]: 0.1898 | SC.Exp. 1-1 [6]: 0 | SC.Exp. 1-2 [6]: 2 | SC.Exp. 2-1 [6]: 0 | SC.Exp. 2-2 [6]: 0 | Sum (SC.Exp.) [6]: 2 | AvgP [7]: 0.4214 | SC.Exp. 1-1 [7]: 4 | SC.Exp. 1-2 [7]: 3 | SC.Exp. 2-1 [7]: 0 | SC.Exp. 2-2 [7]: 0 | Sum (SC.Exp.) [7]: 7
